Columns and labels:
[1] = tested on: body temperature (pyrogenic response to feeding); assay: Thermoregulation in OVX ewes; assay type: in vivo, ewe; settings: 1 mg/kg intravenous bolus
Source text: In Vivo Assay in OVX Ewes-Activity in Thermoregulation Experimental Methods: Evaluation of Thermoregulation in OVX Ewe […] After 4 months recovery, animals were acclimatised to housing in single pens for a period of 7 days with ad libitum access to water and […] lucerne hay. One day prior to experimentation, the animals received a jugular vein cannula ([…], Tuta Laboratories, Lane Cove, Australia). The cannulo were kept patent with heparinised saline. On the day of the experiment, compound n^o 5 of the present invention was formulated in physiological saline with 9% 2-hydroxypropyl-β-cyclodextrin at a concentration of 2 mg/mL. […] Animals were fed at 12 h00. Rectal temperatures were monitored with a probe at hourly intervals throughout the experiment, starting at 7 h40 and concluding at 15 h40.

plasma testosterone = assay: Plasma testosterone in gonad intact male rats; assay type: in vivo, rat; settings: 3 mg/kg oral, vs vehicle, FIG. 1
Method: Effect of Compounds of the Invention on Plasma Testosterone in Gonad Intact Male Rats
The study was designed to evaluate the effect of compounds of the invention on testosterone circulating levels following oral administration at 3 mg/kg on SD gonad intact male rats.
Briefly the experimental methods used for this study were as follows:
Two groups of non-fasted rats (male, Sprague-Dawley, 200 to 225 g; n=4 rats/group) with jugular vein cannulation, were dosed via a single oral administration of compounds of the invention at 3 mg/kg. The control group was dosed with the vehicle. Compounds of the invention were prepared in a dose formulation of pyrogen-free water with 0.5% methylcellulose. Blood samples were collected via the catheter implanted in the jugular vein at pre-determined intervals using EDTA-3K as anti-coagulant. Samples were chilled and rapidly processed by centrifugation to obtain corresponding plasma samples. Testosterone hormone levels were determined by RIA performed on plasma samples collected for all the groups at 5 minutes before administration (basal time), and at 45, 90, 150, 300, 480 minutes and 24 hours after dosing.

## Cc1nsc(-c2nnc3n2CCN(C(=O)c2ccc(F)cc2)[C@@H]3C)n1 [Compound 5, (R)-(4-fluorophenyl)(8-methyl-3-(3-methyl-1,2,4-thiadiazol-5-yl)-5,6-dihydro-[1,2,4]triazolo[4,3-a]pyrazin-7(8H)-yl)methanone]
[1]
  pyrogenic response to feeding: not observed
[1]; after feeding at 12 h00, mean±SEM
  body temperature at the 12 h40 time point: 38.9±0.2 °C
Plasma testosterone
  plasma testosterone level: significantly suppressed

Reference: US20240199618A1, “NOVEL N-ACYL-[3-SUBSTITUTED]-[8-SUBSTITUTED]-5,6-DIHYDRO-[1,2,4]TRIAZOLO[4,3-a]PYRAZINES AS SELECTIVE NK-3 RECEPTOR ANTAGONISTS, PHARMACEUTICAL COMPOSITION, METHODS FOR USE IN NK-3 RECEPTOR-MEDIATED DISORDERS” (Ogeda SA, priority 2013, published 2024)
